From PMC7515946, “Targeting of Perforin Inhibitor into the Brain Parenchyma Via a Prodrug Approach Can Decrease Oxidative Stress and Neuroinflammation and Improve Cell Survival” (Molecular Neurobiology, 2020)
Values joined by “and” are separate entries in the source; they are usually repeats but may differ in a detail not shown here. Equal entries are not always repeated. “Also recorded” adds a separate entry of the source. Where two headings read alike, the source gives them in different places.

Legend:
[1] = target: T1, butyrylcholinesterase (BChE) (Mus musculus, UniProt Q03311); type: biochemical; conditions: mouse brain S9 fraction, butyrylthiocholine 1 mM, 30 min endpoint
T1 construct: mouse brain S9 fraction was prepared by homogenizing freshly collected mouse brain; from tissue; host or cells: mouse brain S9 fraction (9000 x g supernatant)
Description: (§1) Briefly, mouse brain S9 fraction was prepared by homogenizing freshly collected mouse brain with 50 mM Tris-buffered saline (TBS) (pH 7.4) (1:4 w/v), centrifuging the homogenate at 9000 × g for 20 min at 4 °C and collecting the supernatant. The supernatant was then diluted 1:10 with phosphate buffer (100 mM; pH 7.0) and mixed with Ellman’s reagent (DTNB; 1 mM) and studied compounds in DMSO (DMSO concentration was less than 0.5%) on a 96-well plate as 3 parallel assays.

[2] = design: method as in PMID 27266990; conditions: cited from earlier work
[3] = Intracellular unbound concentrations in astrocytes (RED dialysis, Kp,uu,cell); type: in vitro ADME; conditions: mouse; for fraction unbound at 4 h, 100 μM: astrocyte homogenate, RED, 37 °C, read-out: fu,cell (unbound fraction)
Description: The non-specific binding of compounds (100 μM) was determined in astrocyte homogenate by using the Rapid Equilibrium Dialysis (RED) device (Thermo Fisher Scientific, Inc., Waltham, MA, USA). Briefly, the astrocyte cell suspension (10 × 10^6 cells/mL) was homogenized with HBSS by the SoniPerp 150 Plus disintegrator (MSE Ltd., London, UK) (2 s × 3). The studied compound was mixed with 100 μL of cell homogenate and added to the reaction chamber. A 350-μL HBSS buffer was added to the buffer chamber. The dialysis plate was incubated at 37 °C for 4 h with shaking. Fifty microliters of samples were taken from the reaction and buffer chambers and equal size of the buffer or blank homogenate were added, respectively, to yield identical matrices. The proteins were precipitated by adding 100 μL of ice-cold ACN (including the selected internal standard; see above), and the supernatants were collected for LC-MS analysis (see above) after centrifugation at 12,000 × g for 10 min. The unbound drug fraction (fu,cell) was calculated by dividing concentration in the buffer chamber by concentration in the reaction chamber and taking into account the effect of homogenate dilution factor (D = 45 for 10 × 10^6 cells/mL cell suspension according to their weight of the cells) as described earlier.
The compound concentration ratios in astrocytes (Kp) was determined at 0.01–1.0 μM concentrations by comparing the cellular uptake amount (nmol) in cell lysates (0.1 M NaOH) per astrocyte cell volume (0.05810^−15 L/cell for 10 × 10^4 cells/well) to the concentrations (nM) detected from the surrounding buffer (HBSS) collected before cell lysing as described previously. The unbound drug concentration ratio (Kp,uu) was then calculated by multiplying the drug concentration ratio (Kp) by unbound drug fraction (fu,cell).

[4] = Transporter-mediated cellular uptake into primary astrocytes; type: in vitro ADME; conditions: C57BL/6JOlaHsd, mouse
Description: (§2) For the cell uptake experiments, the astrocytes were seeded on 24-well plates with a density of 10 × 10^4 cells/well 3 days before the experiments. […]; Agilent Technologies, Santa Clara, CA). […] The concentrations of each compound in cell lysates were calculated from the standard curve that was prepared by spiking known amounts of compounds to ACN including the selected internal standard and normalized with protein concentration. The protein concentrations on each plate were determined as a mean of three samples by Bio-Rad Protein Assay, based on the Bradford dye-binding method, using bovine serum albumin (BSA) as a standard protein and measuring the absorbance (595 nm) by a multiplate reader (EnVision, Perkin Elmer, Inc., Waltham, MA, USA).

mouse primary astrocytes = assay: as above; type: in vitro ADME; conditions: for Vmax of cellular uptake (maximum transport capacity): 1–200 μM, 30 min
Description: as §2

[5] = target: T2, acetylcholinesterase (AChE) (Mus musculus, UniProt P21836); assay: biochemical; conditions: for IC50: mouse brain S9 fraction, acetylthiocholine 1 mM, 30 min endpoint
T2 construct: mouse brain S9 fraction was prepared by homogenizing freshly collected mouse brain; from tissue; host or cells: mouse brain S9 fraction (9000 x g supernatant)
T2 sequence (P21836 32-614): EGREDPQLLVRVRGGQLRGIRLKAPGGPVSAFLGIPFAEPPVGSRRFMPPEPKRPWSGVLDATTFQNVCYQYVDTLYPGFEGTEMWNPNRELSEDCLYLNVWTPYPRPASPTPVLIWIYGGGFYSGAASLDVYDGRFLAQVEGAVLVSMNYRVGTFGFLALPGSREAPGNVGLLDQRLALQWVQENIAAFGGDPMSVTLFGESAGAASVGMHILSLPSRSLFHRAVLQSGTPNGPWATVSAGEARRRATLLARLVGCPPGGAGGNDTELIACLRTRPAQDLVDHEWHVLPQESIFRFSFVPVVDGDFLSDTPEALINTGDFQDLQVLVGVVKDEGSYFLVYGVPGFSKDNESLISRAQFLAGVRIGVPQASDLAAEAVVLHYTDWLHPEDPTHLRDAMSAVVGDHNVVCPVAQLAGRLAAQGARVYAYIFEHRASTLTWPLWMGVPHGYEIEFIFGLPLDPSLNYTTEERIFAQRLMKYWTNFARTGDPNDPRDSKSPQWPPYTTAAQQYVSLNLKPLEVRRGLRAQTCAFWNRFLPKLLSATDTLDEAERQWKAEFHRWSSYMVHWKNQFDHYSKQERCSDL
Description: as §1
According to the Hanes–Woolf plots, the ratio of initial substrate concentration to the reaction velocity ([S]/v) was plotted against the substrate concentration (μM).

primary astrocytes = assay: Ability to affect cell growth of primary astrocytes (resazurin); type: cell-based; conditions: 72 h
[6] = 1–200 μM, 30 min, read-out: Km of cellular uptake

T1 sequence (Q03311 30-603): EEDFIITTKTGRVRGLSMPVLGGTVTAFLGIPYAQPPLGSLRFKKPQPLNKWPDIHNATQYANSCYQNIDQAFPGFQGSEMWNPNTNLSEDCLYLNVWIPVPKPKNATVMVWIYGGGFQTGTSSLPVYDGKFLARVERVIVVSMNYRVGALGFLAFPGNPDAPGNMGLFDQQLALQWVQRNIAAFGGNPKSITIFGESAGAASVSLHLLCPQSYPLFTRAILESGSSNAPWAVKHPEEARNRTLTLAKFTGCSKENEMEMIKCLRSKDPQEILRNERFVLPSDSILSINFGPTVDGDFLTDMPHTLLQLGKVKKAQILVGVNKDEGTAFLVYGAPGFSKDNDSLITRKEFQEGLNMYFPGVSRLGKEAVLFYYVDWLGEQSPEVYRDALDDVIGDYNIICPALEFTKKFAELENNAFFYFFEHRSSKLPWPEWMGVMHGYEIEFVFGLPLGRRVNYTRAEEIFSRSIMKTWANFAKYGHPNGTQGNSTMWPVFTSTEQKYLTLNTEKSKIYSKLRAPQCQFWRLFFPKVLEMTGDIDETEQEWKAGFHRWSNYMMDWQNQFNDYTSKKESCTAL

| Structure (SMILES) | BChE IC50 value [1] | Amount of released PFI in the brain after the prodrug treatment ([2]; after PFI-PD 23 μmol/kg) | Brain levels of PFI after PFI dosing ([2]; dose 23 μmol/kg, LC-MS/MS) | fraction unbound at 4 h, 100 μM [3] | Km at 30 min [4, 6] [µM] | Km at 30 min ([4]; read-out: Km of cellular uptake, Eadie-Hofstee, first transport mechanism) [µM] | Km at 30 min ([4]; read-out: Km of cellular uptake, Eadie-Hofstee, second transport mechanism) [µM] | Vmax of cellular uptake (maximum transport capacity) (mouse primary astrocytes) [nmol/min/mg protein] | Vmax of cellular uptake, Eadie-Hofstee, first transport mechanism (mouse primary astrocytes; mechanism with Km 8.3 μM) [nmol/min/mg protein] | Vmax of cellular uptake, Eadie-Hofstee, second transport mechanism (mouse primary astrocytes; mechanism with Km 680 μM) [nmol/min/mg protein] | IC50 [5] | Inhibition of astrocyte cell growth (primary astrocytes; concentrations over 100 μM, vs untreated control) | Brain Cmax ([2]; dose 23 μmol/kg) | Unbound brain Cmax,u ([2]; dose 23 μmol/kg) | Kp uu at 50 nM ([3]; primary astrocytes, astrocytes, 50 nM concentration, read-out: Kp,uu,cell (unbound drug accumulation ratio)) | Type of AChE inhibition ([5]; Hanes–Woolf plot) | Vmax of AChE reaction in presence of inhibitor ([5]; mouse brain S9, acetylthiocholine, PFI-PD (12 μM), without inhibitor 2.21 ± 0.01) | Increase of astrocyte cell growth (primary astrocytes; 5–100 μM, vs control cells) | Effect on astrocyte cell growth / viability (primary astrocytes; 5–400 μM) |
| --- | --- | --- | --- | --- | --- | --- | --- | --- | --- | --- | --- | --- | --- | --- | --- | --- | --- | --- | --- |
| O=C1OCc2cc(-c3ccc(-c4ccc(CO)cc4)s3)ccc21 [PFI] | No inhibition | 0.01 nmol/g of tissue | below the detection limit | 0.0053 ± 0.0001 | 98 | 8.3 | 680 | 1.4 ± 0.4 | 0.036 ± 0.007 | 2.53 ± 0.17 | 12 µM and 12.3 µM | 38–68% | – | – | – | – | – | – | – |
| N[C@H](Cc1cccc(C(=O)OCc2ccc(-c3ccc(-c4ccc5c(c4)COC5=O)s3)cc2)c1)C(=O)O [PFI-PD] | No inhibition | – | – | 7e-05 ± 4e-05 | 720 | – | – | 54 ± 7 | – | – | 8 µM and 8.15 µM | – | 0.12 nmol/g of tissue | 0.002 nmol/g of tissue | 2.01 ± 0.91 | mixed-type | 2.17 nmol/min/mg protein and 2.17 ± 0.02 nmol/min/mg protein | 35–87% | did not exert any inhibitory effects; also recorded: did not affect the cell viability |
